Numbered stars: 1 amine (or outer) side, 2 acyl side, 3 side chain; on linkers, the order of the positions; unused ones are H or OH. Peptide text beside a SMILES is read from it. * marks the point of attachment. C20 diacid = O=C(O)CCCCCCCCCCCCCCCCCCC(=O)*; C18 diacid = O=C(O)CCCCCCCCCCCCCCCCC(=O)*; γGlu = O=C(O)[C@H](CCC(=O)[*:2])N[*:1]
How the values were obtained:
[1] = Solubility in 100 mM bistrispropane buffer at pH 8.0 incubated for 18 hrs by UPLC analysis; type: physicochemical
[2] = Solubility in 100 mM bistrispropane buffer at pH 6.0 incubated for 18 hrs by UPLC analysis; type: physicochemical
[3] = Solubility in 100 mM glycylglycine buffer at pH 5.0 incubated for 18 hrs by UPLC analysis; type: physicochemical
[4] = target: T1, Amylin receptor AMY3; CALCR/RAMP3 (Homo sapiens, UniProt O60896+P30988); test: Agonist activity at human amylin receptor expressed in BHK570 cells co-expressing RAMP3 assessed as increase in intracellular cAMP concentration incubated for 3 hrs in absence of albumin by CRE luciferase reporter gene assay; type: functional, cell-based
T1 sequence (P30988 whole entry): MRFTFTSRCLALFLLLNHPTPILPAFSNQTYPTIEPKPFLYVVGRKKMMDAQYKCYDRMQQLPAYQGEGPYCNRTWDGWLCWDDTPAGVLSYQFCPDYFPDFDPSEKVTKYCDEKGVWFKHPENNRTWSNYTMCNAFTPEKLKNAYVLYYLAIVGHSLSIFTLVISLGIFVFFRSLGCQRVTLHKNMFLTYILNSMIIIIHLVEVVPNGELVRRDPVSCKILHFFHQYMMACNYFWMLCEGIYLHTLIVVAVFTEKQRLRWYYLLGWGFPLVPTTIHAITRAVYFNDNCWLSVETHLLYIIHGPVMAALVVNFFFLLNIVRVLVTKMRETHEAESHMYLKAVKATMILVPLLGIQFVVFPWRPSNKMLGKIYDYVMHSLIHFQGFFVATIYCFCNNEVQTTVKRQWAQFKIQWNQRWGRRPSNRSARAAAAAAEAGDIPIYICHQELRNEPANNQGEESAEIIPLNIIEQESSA
T1 sequence (O60896 whole entry): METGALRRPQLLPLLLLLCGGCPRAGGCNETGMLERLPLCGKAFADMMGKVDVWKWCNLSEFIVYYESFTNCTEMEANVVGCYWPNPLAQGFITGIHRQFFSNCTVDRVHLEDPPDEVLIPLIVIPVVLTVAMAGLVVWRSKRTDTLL

[5] = Solubility in 100 mM bistrispropane buffer at pH 6.5 incubated for 18 hrs by UPLC analysis; type: physicochemical
[6] = target: T1, Amylin receptor AMY3; CALCR/RAMP3; test: Displacement of [125I]-labeled rat amylin from human amylin receptor expressed in BHK tkts13 whole cells co-expressing RAMP3 incubated for 60 mins by scintillation proximity assay; type: cell-based
[7] = Solubility in 100 mM bistrispropane buffer at pH 7.5 incubated for 18 hrs by UPLC analysis; type: physicochemical
[8] = Solubility in 100 mM glycylglycine buffer at pH 4.0 incubated for 18 hrs by UPLC analysis; type: physicochemical
[9] = Solubility in 100 mM bistrispropane buffer at pH 7.0 incubated for 18 hrs by UPLC analysis; type: physicochemical
[10] = Solubility in 100 mM glycylglycine buffer at pH 3.0 incubated for 18 hrs by UPLC analysis; type: physicochemical
Calcitonin receptor [11] = target: T2, Calcitonin receptor (Homo sapiens, UniProt P30988); test: Agonist activity at human calcitonin receptor expressed in BHK570 cells assessed as increase in intracellular cAMP concentration incubated for 3 hrs in absence of albumin by CRE luciferase reporter gene assay; type: functional, cell-based
T2 sequence (P30988 whole entry): T1 sequence (P30988 whole entry)

Calcitonin receptor [12] = target: T2, Calcitonin receptor; test: Agonist activity at human calcitonin receptor expressed in BHK570 cells assessed as increase in intracellular cAMP concentration incubated for 3 hrs in presence of 10% FBS by CRE luciferase reporter gene assay; type: functional, cell-based

| Structure (SMILES) | solubility at 18 h [1] | solubility at 18 h [2] | solubility at 18 h [3] | EC50 [4] | solubility at 18 h [5] | IC50 [6] | solubility at 18 h [7] | solubility at 18 h [8] | solubility at 18 h [9] | solubility at 18 h [10] | EC50 (Calcitonin receptor [11]) | EC50 (Calcitonin receptor [12]) |
| --- | --- | --- | --- | --- | --- | --- | --- | --- | --- | --- | --- | --- |
| CC(C)C[C@H](NC(=O)[C@H](C)NC(=O)[C@H](C)NC(=O)[C@@H](NC(=O)[C@H](CO)NC(=O)[C@H](CC(C)C)NC(=O)[C@H](CCC(=O)O)NC(=O)[C@H](CO)NC(=O)[C@H](C)NC(=O)CC[C@H](NC(=O)CCCCCCCCCCCCCCCCCCC(=O)O)C(=O)O)[C@@H](C)O)C(=O)NCC(=O)N[C@@H](Cc1cnc[nH]1)C(=O)N[C@@H](CC(C)C)C(=O)N[C@@H](CO)C(=O)N[C@@H](C)C(=O)N[C@@H](CCC(=O)O)C(=O)N[C@@H](CC(C)C)C(=O)N[C@@H](Cc1cnc[nH]1)C(=O)N[C@@H](CCC(=O)O)C(=O)N[C@@H](CC(C)C)C(=O)N[C@@H](C)C(=O)N[C@H](C(=O)N[C@@H](CC(C)C)C(=O)N1CCC[C@H]1C(=O)N[C@@H](Cc1cnc[nH]1)C(=O)N[C@H](C(=O)N[C@@H](CCC(=O)O)C(=O)N[C@H](C(=O)NCC(=O)N[C@H](C(=O)NCC(=O)N[C@H](C(=O)N1CCC[C@H]1C(N)=O)[C@@H](C)O)[C@@H](C)O)[C@@H](C)O)[C@@H](C)O)[C@@H](C)O ({C20 diacid-γGlu}-ASELSTAALGHLSAELHELATLPHTETGTGTP-NH2) | ≥ 200 µM | ≥ 200 µM | ≥ 200 µM | 0.064 nM | ≥ 200 µM | 1.51 nM | ≥ 200 µM | ≥ 200 µM | ≥ 200 µM | ≥ 200 µM | 0.024 nM | – |
| CC(C)C[C@H](NC(=O)[C@H](C)NC(=O)[C@H](C)NC(=O)[C@@H](NC(=O)[C@H](CO)NC(=O)[C@H](CC(C)C)NC(=O)[C@H](CCC(=O)O)NC(=O)[C@H](CO)NC(=O)[C@H](C)NC(=O)CC[C@H](NC(=O)CCCCCCCCCCCCCCCCCCC(=O)O)C(=O)O)[C@@H](C)O)C(=O)NCC(=O)N[C@@H](CCCNC(=N)N)C(=O)N[C@@H](CC(C)C)C(=O)N[C@@H](CO)C(=O)N[C@@H](C)C(=O)N[C@@H](CCC(=O)O)C(=O)N[C@@H](CC(C)C)C(=O)N[C@@H](Cc1cnc[nH]1)C(=O)N[C@@H](CCC(=O)O)C(=O)N[C@@H](CC(C)C)C(=O)N[C@@H](C)C(=O)N[C@H](C(=O)N[C@@H](Cc1ccc(O)cc1)C(=O)N1CCC[C@H]1C(=O)N[C@@H](CCCNC(=N)N)C(=O)N[C@H](C(=O)N[C@@H](CCC(=O)O)C(=O)N[C@H](C(=O)NCC(=O)N[C@@H](CO)C(=O)NCC(=O)N[C@@H](CO)C(=O)N1CCC[C@H]1C(=O)N[C@@H](CCCCN)C(=O)O)[C@@H](C)O)[C@@H](C)O)[C@@H](C)O ({C20 diacid-γGlu}-ASELSTAALGRLSAELHELATYPRTETGSGSPK-OH) | – | – | – | 0.239 nM | – | 21 nM | – | – | – | – | – | 0.053 nM |

The next molecules have a lower EC50 [4] than those just listed; values first:

| solubility at 18 h [1] | solubility at 18 h [2] | solubility at 18 h [3] | EC50 [4] | solubility at 18 h [5] | IC50 [6] | solubility at 18 h [7] | solubility at 18 h [8] | solubility at 18 h [9] | solubility at 18 h [10] | EC50 (Calcitonin receptor [11]) | EC50 (Calcitonin receptor [12]) | Structure (SMILES) |
| --- | --- | --- | --- | --- | --- | --- | --- | --- | --- | --- | --- | --- |
| ≥ 200 µM | ≥ 200 µM | ≥ 200 µM | 0.006 nM | ≥ 200 µM | 0.511 nM | ≥ 200 µM | ≥ 200 µM | ≥ 200 µM | ≥ 200 µM | 0.005 nM | – | CC[C@H](C)[C@H](NC(=O)[C@H](CCC(=O)O)NC(=O)[C@H](Cc1cnc[nH]1)NC(=O)[C@H](CC(C)C)NC(=O)[C@H](CCC(=O)O)NC(=O)[C@H](C)NC(=O)[C@H](CO)NC(=O)[C@H](CC(C)C)NC(=O)[C@H](CCCNC(=N)N)NC(=O)CNC(=O)[C@H](CC(C)C)NC(=O)[C@H](C)NC(=O)[C@H](C)NC(=O)[C@@H](NC(=O)[C@H](CO)NC(=O)[C@H](CC(C)C)NC(=O)[C@H](CCC(=O)O)NC(=O)[C@H](CO)NC(=O)[C@H](C)NC(=O)[C@H](CCC(=O)O)NC(=O)CCCCCCCCCCCCCCCCC(=O)O)[C@@H](C)O)C(=O)N[C@@H](C)C(=O)N[C@H](C(=O)N[C@@H](CC(C)C)C(=O)N1CCC[C@H]1C(=O)N[C@@H](CCCNC(=N)N)C(=O)N[C@H](C(=O)N[C@@H](CCC(=O)O)C(=O)N[C@H](C(=O)NCC(=O)N1CCC[C@H]1C(=O)N[C@@H](CCC(=O)O)C(=O)N[C@@H](CO)C(=O)N1CCC[C@H]1C(N)=O)[C@@H](C)O)[C@@H](C)O)[C@@H](C)O ({C18 diacid}-EASELSTAALGRLSAELHEIATLPRTETGPESP-NH2) |
| ≥ 200 µM | ≥ 200 µM | ≥ 200 µM | 0.031 nM | ≥ 200 µM | 9 nM | ≥ 200 µM | ≥ 200 µM | ≥ 200 µM | ≥ 200 µM | 0.012 nM | – | CC(C)C[C@H](NC(=O)[C@H](CCC(=O)O)NC(=O)[C@H](Cc1cnc[nH]1)NC(=O)[C@H](CC(C)C)NC(=O)[C@H](CCC(=O)O)NC(=O)[C@H](C)NC(=O)[C@H](CO)NC(=O)[C@H](CC(C)C)NC(=O)[C@H](CCCNC(=N)N)NC(=O)CNC(=O)[C@H](CC(C)C)NC(=O)[C@@H](NC(=O)[C@H](C)NC(=O)[C@@H](NC(=O)[C@H](CO)NC(=O)[C@H](CC(C)C)NC(=O)[C@H](CCC(=O)O)NC(=O)[C@H](CO)NC(=O)[C@H](C)NC(=O)[C@H](CCC(=O)O)NC(=O)CCCCCCCCCCCCCCCCC(=O)O)[C@@H](C)O)C(C)C)C(=O)N[C@@H](C)C(=O)N[C@H](C(=O)N[C@@H](CC(C)C)C(=O)N1CCC[C@H]1C(=O)N[C@@H](CCCNC(=N)N)C(=O)N[C@H](C(=O)N[C@@H](CCC(=O)O)C(=O)N1CCC[C@H]1C(=O)NCC(=O)N1CCC[C@H]1C(=O)N[C@@H](CCC(=O)O)C(=O)N[C@@H](CO)C(=O)N1CCC[C@H]1C(N)=O)[C@@H](C)O)[C@@H](C)O ({C18 diacid}-EASELSTAVLGRLSAELHELATLPRTEPGPESP-NH2) |
| ≥ 200 µM | ≥ 200 µM | ≥ 200 µM | 0.009 nM | ≥ 200 µM | 0.275 nM | ≥ 200 µM | ≥ 200 µM | ≥ 200 µM | ≥ 200 µM | 0.007 nM | – | CC(C)C[C@H](NC(=O)[C@H](C)NC(=O)[C@H](CC(C)C)NC(=O)[C@@H](NC(=O)[C@H](CO)NC(=O)[C@H](CC(C)C)NC(=O)[C@H](CCC(=O)O)NC(=O)[C@H](CO)NC(=O)[C@H](C)NC(=O)[C@H](CCC(=O)O)NC(=O)CCCCCCCCCCCCCCCCC(=O)O)[C@@H](C)O)C(=O)NCC(=O)N[C@@H](CCCNC(=N)N)C(=O)N[C@@H](CC(C)C)C(=O)N[C@@H](CO)C(=O)N[C@@H](C)C(=O)N[C@@H](CCC(=O)O)C(=O)N[C@@H](CC(C)C)C(=O)N[C@@H](Cc1cnc[nH]1)C(=O)N[C@@H](CCC(=O)O)C(=O)N[C@@H](CC(C)C)C(=O)N[C@@H](C)C(=O)N[C@H](C(=O)N[C@@H](CC(C)C)C(=O)N1CCC[C@H]1C(=O)N[C@@H](CCCNC(=N)N)C(=O)N[C@H](C(=O)N[C@@H](CCC(=O)O)C(=O)N[C@H](C(=O)NCC(=O)N1CCC[C@H]1C(=O)N[C@@H](CCC(=O)O)C(=O)N[C@@H](CO)C(=O)N1CCC[C@H]1C(N)=O)[C@@H](C)O)[C@@H](C)O)[C@@H](C)O ({C18 diacid}-EASELSTLALGRLSAELHELATLPRTETGPESP-NH2) |
| ≥ 200 µM | ≥ 200 µM | ≥ 200 µM | 0.014 nM | ≥ 200 µM | 0.323 nM | ≥ 200 µM | ≥ 200 µM | ≥ 200 µM | ≥ 200 µM | 0.007 nM | – | CC(C)C[C@H](NC(=O)[C@H](CCC(=O)O)NC(=O)[C@H](Cc1cnc[nH]1)NC(=O)[C@H](CC(C)C)NC(=O)[C@H](CCC(=O)O)NC(=O)[C@H](C)NC(=O)[C@H](CO)NC(=O)[C@H](CC(C)C)NC(=O)[C@H](CCCNC(=N)N)NC(=O)CNC(=O)[C@H](CC(C)C)NC(=O)[C@@H](NC(=O)[C@H](C)NC(=O)[C@@H](NC(=O)[C@H](CO)NC(=O)[C@H](CC(C)C)NC(=O)[C@@H]1CCCN1C(=O)[C@H](CO)NC(=O)[C@H](C)NC(=O)[C@H](CCC(=O)O)NC(=O)CCCCCCCCCCCCCCCCC(=O)O)[C@@H](C)O)C(C)C)C(=O)N[C@@H](C)C(=O)N[C@H](C(=O)N[C@@H](CC(C)C)C(=O)N1CCC[C@H]1C(=O)N[C@@H](CCCNC(=N)N)C(=O)N[C@H](C(=O)N[C@@H](CCC(=O)O)C(=O)N[C@H](C(=O)NCC(=O)N1CCC[C@H]1C(=O)N[C@@H](CCC(=O)O)C(=O)N[C@@H](CO)C(=O)N1CCC[C@H]1C(N)=O)[C@@H](C)O)[C@@H](C)O)[C@@H](C)O ({C18 diacid}-EASPLSTAVLGRLSAELHELATLPRTETGPESP-NH2) |
